Measured values: patent US10702543B2, “Intranuclear protein transduction through a nucleoside salvage pathway” (The United States Government as represented by The …, priority 2007, dated 2020)

Assays:
[1] = tested on: ENT subtype equilibrative, insensitive (ei); details: low concentrations (e.g., <1 μM) of NBMPR; cited from earlier work
ENT2 [2] = target: T1, ENT2 (Homo sapiens, UniProt Q14542); details: read-out: Ki of NBMPR for ENT2; Ward et al., J. Biol. Chem. 2000; cited from earlier work
T1 sequence (Q14542 1-456): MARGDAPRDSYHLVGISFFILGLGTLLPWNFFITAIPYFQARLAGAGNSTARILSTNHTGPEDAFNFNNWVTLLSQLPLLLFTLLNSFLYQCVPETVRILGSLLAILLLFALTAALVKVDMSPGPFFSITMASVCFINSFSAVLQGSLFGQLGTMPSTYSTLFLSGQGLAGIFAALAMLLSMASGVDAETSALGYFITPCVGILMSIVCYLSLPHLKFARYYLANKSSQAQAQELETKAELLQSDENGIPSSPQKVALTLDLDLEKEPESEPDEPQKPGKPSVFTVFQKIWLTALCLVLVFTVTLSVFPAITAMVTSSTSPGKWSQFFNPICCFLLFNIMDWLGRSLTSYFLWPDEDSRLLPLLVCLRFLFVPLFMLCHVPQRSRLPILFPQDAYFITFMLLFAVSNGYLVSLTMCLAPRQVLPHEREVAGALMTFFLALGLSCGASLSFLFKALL

ENT2 [3] = target: T1, ENT2; assay: Inhibition of ENT2 by NBMPR (Ward et al.); type: biochemical
ENT4 = target: T2, ENT4 (Homo sapiens, UniProt Q7RTT9); details: cited from earlier work
T2 sequence (Q7RTT9 1-530): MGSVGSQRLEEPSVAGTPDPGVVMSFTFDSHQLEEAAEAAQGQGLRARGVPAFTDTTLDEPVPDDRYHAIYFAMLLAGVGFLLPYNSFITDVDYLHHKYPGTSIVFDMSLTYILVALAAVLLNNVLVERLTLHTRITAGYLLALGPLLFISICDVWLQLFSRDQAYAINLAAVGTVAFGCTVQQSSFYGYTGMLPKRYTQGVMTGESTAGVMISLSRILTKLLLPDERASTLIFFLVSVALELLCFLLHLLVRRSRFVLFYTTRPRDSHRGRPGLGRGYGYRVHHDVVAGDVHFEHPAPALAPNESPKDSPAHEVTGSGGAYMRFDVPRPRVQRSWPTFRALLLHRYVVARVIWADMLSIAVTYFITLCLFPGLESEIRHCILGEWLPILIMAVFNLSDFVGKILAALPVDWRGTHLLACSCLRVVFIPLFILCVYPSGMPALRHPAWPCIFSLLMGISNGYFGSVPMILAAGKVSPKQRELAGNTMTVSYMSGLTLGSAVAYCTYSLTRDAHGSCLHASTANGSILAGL

cells in tissue culture = details: cited from earlier work

Compound | effect of NBMPR on the ei subtype [1] | Ki (ENT2 [2]) [µM] | ENT2 activity (ENT2 [3]; at 10 μM NBMPR) | expected suppression of ENT2 activity (ENT2 [3]; by 10 μM NBMPR) [%] | inhibition of ENT4 by NBMPR (ENT4) | harm to cells that it penetrates (cells in tissue culture)
O=[N+]([O-])c1ccc(CSc2ncnc3c2ncn3C2OC(CO)C(O)C2O)cc1 (stereo not drawn) [NBMPR, Nitrobenzylmercaptopurine riboside] | unaffected | 2.8 | retains moderate activity | > 50 | weakly inhibited | 
mAb 3E10: monoclonal anti-DNA antibody produced by hybridoma 3E10, ATCC accession number PTA-2439 |  |  |  |  |  | no harm
